Data on five compounds can be found in patent US10519114B2, “Peptidomimetics and methods of using the same” (The Regents of the University of Michigan, priority 2016, dated 2019).

One may read the Ki as a dissociation constant, usually derived from enzyme kinetics or from competition with a known ligand. The EC50 is the concentration that produces a half-maximal response. Broadly, the Emax is the size of the effect at its maximum, as opposed to the concentration needed.

T3 sequence (P41145 whole entry): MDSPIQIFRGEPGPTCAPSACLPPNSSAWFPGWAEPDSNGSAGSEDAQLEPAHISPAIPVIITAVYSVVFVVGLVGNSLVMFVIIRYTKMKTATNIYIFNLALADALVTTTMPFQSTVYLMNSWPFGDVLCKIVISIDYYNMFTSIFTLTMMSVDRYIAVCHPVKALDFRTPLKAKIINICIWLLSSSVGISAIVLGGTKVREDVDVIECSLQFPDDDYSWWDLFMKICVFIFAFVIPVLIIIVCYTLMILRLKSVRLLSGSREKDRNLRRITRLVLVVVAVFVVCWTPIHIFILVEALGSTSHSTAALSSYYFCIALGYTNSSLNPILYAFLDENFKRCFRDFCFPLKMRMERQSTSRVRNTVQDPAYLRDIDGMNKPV

The first assay deals with T1, rat μ (C6-MOR) opioid receptor (Rattus norvegicus, UniProt P33535).
T1 construct: expressed in transfected cells
T1 sequence (P33535 whole entry): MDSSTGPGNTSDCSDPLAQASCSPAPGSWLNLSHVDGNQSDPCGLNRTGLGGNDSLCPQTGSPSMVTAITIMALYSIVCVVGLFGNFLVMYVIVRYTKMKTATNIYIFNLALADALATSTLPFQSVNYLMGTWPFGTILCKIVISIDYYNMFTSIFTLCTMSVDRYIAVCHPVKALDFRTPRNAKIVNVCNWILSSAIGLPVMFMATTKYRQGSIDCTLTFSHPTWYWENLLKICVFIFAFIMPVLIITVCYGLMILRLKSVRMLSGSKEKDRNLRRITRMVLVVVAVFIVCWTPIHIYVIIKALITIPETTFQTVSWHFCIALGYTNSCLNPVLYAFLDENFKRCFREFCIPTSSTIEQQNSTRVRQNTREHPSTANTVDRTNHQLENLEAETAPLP
In words: Radioligand binding assay, [3H]diprenorphine displacement, MOR. Particulars: displacement of 0.2 nM [3H]diprenorphine, C6-MOR membranes; mean ± standard error. The essentials: (§1)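 Membranes (20 μg protein) from C6 cells expressing rat μ or δ, or CHO cells expressing human κ receptor, incubated 1 h at room temperature with 0.2 nM [3H]diprenorphine and test peptide in 50 mM Tris-HCl pH 7.4. Filtration, scintillation counting; nonspecific binding with 10 μM naloxone; Ki by logistic nonlinear regression.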
`Cc1cc(O)cc(C)c1C[C@H](N)C(=O)N(C1CC1)[C@@H]1CCNc2ccc(Cc3ccccc3)cc21` [Compound 1015] had a Ki of 25.6 ± 9.83 nM.

`Cc1ccc(Cc2ccc3c(c2)[C@H](NC(=O)[C@@H](N)Cc2c(C)cc(O)cc2C)CCN3)cc1` [Compound 1007] came in with a Ki of 0.11 nM.

`Cc1cc(O)cc(C)c1C[C@H](N)C(=O)N[C@@H]1CCNc2ccc(CN3CCC[C@H]4CCCC[C@@H]43)cc21` [Compound 1051]: the Ki worked out at 0.18 ± 0.03 nM.

`Cc1cc(O)cc(C)c1C[C@H](N)C(=O)N[C@@H]1CCN(C)c2ccc(Cc3ccccc3)cc21` [Compound 1004] yielded a Ki of 0.555 ± 0.242 nM.

In the case of `Cc1cc(O)cc(C)c1C[C@H](N)C(=O)N[C@H]1CCN(C)c2ccc(Cc3ccccc3)cc21` [Compound 1005], the Ki is 71.4 ± 18.4 nM. This Ki is about 130-fold higher than that of the compound before.

The target in another assay is T2, rat δ (C6-DOR) opioid receptor (Rattus norvegicus, UniProt P33533).
T2 construct: expressed in transfected cells
T2 sequence (P33533 whole entry): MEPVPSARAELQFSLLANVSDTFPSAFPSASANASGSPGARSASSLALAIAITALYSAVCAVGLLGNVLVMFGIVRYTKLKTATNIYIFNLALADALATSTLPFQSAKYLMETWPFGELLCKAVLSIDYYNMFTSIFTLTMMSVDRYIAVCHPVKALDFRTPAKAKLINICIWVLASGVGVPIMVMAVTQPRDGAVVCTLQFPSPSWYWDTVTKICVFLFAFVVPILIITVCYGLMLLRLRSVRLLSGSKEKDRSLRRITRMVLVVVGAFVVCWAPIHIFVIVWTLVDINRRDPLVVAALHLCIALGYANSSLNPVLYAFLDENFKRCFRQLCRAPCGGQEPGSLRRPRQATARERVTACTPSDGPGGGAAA
Description: Radioligand binding assay, [3H]diprenorphine displacement, DOR. The following applies: displacement of 0.2 nM [3H]diprenorphine, C6-DOR membranes; mean ± standard error. In outline:
as §1
With `Cc1cc(O)cc(C)c1C[C@H](N)C(=O)N(C1CC1)[C@@H]1CCNc2ccc(Cc3ccccc3)cc21` [Compound 1015], the affinity corresponds to a Ki of 23.4 ± 10.9 nM.

For `Cc1ccc(Cc2ccc3c(c2)[C@H](NC(=O)[C@@H](N)Cc2c(C)cc(O)cc2C)CCN3)cc1` [Compound 1007], affinity was put at a Ki of 6.1 nM.

As for `Cc1cc(O)cc(C)c1C[C@H](N)C(=O)N[C@@H]1CCNc2ccc(CN3CCC[C@H]4CCCC[C@@H]43)cc21` [Compound 1051], the Ki was 9.5 ± 1.22 nM.

For the compound `Cc1cc(O)cc(C)c1C[C@H](N)C(=O)N[C@@H]1CCN(C)c2ccc(Cc3ccccc3)cc21` [Compound 1004], the affinity, expressed as Ki, was 7.3 ± 3.5 nM.

Compound `Cc1cc(O)cc(C)c1C[C@H](N)C(=O)N[C@H]1CCN(C)c2ccc(Cc3ccccc3)cc21` [Compound 1005] registered an inhibition constant (Ki) of 138 ± 29.8 nM.

Another assay has as its target T3, human κ (CHO-KOR) opioid receptor (Homo sapiens, UniProt P41145).
T3 construct: expressed in transfected cells
Description: Radioligand binding assay, [3H]diprenorphine displacement, KOR. The following applies: displacement of 0.2 nM [3H]diprenorphine, CHO-KOR membranes; mean ± standard error. The essentials: as §1
The compound `Cc1cc(O)cc(C)c1C[C@H](N)C(=O)N(C1CC1)[C@@H]1CCNc2ccc(Cc3ccccc3)cc21` [Compound 1015] showed a Ki of 58.9 ± 28.5 nM.

Turning to `Cc1ccc(Cc2ccc3c(c2)[C@H](NC(=O)[C@@H](N)Cc2c(C)cc(O)cc2C)CCN3)cc1` [Compound 1007], the Ki turned out to be 18 nM. This Ki is about 3.3-fold lower than that of the compound before.

Turning to `Cc1cc(O)cc(C)c1C[C@H](N)C(=O)N[C@@H]1CCNc2ccc(CN3CCC[C@H]4CCCC[C@@H]43)cc21` [Compound 1051], the affinity, expressed as Ki, was 7.03 ± 1.36 nM.

Regarding `Cc1cc(O)cc(C)c1C[C@H](N)C(=O)N[C@@H]1CCN(C)c2ccc(Cc3ccccc3)cc21` [Compound 1004], the inhibition constant (Ki) came out at 27.8 ± 0.7 nM.

`Cc1cc(O)cc(C)c1C[C@H](N)C(=O)N[C@H]1CCN(C)c2ccc(Cc3ccccc3)cc21` [Compound 1005]: the Ki was found to be 632 ± 78 nM.

For the next assay, the target named is T1, rat μ (C6-MOR) opioid receptor. In words: Stimulation of [35S]GTPγS binding, MOR. Particulars: [35S]GTPγS binding, C6-MOR membranes; mean ± standard error. The format is biochemical. In outline: (§2)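 Peptide-stimulated [35S]GTPγS (0.1 nM) binding, with 30 μM GDP, 5 mM MgCl2 and 100 mM NaCl at pH 7.4, was measured over 1 h at room temperature. Membranes came from rat MOR/DOR C6 or human KOR CHO cells. Filter-retained counts were expressed against 10 μM DAMGO, DPDPE or U69,593 respectively; maxima were fitted nonlinearly.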
On the technique in general: GTPγS is a poorly hydrolysed GTP analogue; its binding reports G protein activation.
`Cc1cc(O)cc(C)c1C[C@H](N)C(=O)N(C1CC1)[C@@H]1CCNc2ccc(Cc3ccccc3)cc21` [Compound 1015] registered an EC50 of 131 ± 21.2 nM.

`Cc1cc(O)cc(C)c1C[C@H](N)C(=O)N[C@@H]1CCNc2ccc(CN3CCC[C@H]4CCCC[C@@H]43)cc21` [Compound 1051] gave an EC50 of 1.22 ± 0.07 nM.

As to `Cc1cc(O)cc(C)c1C[C@H](N)C(=O)N[C@@H]1CCN(C)c2ccc(Cc3ccccc3)cc21` [Compound 1004], a half-maximal effect (EC50) was put at 4 ± 0.9 nM.

On to `Cc1cc(O)cc(C)c1C[C@H](N)C(=O)N[C@H]1CCN(C)c2ccc(Cc3ccccc3)cc21` [Compound 1005], for which the EC50 turned out to be 214 ± 41 nM.

Still in this assay, the particulars now being: [35S]GTPγS maximal stimulation compared with 10 μM standard DAMGO.
Turning to `Cc1cc(O)cc(C)c1C[C@H](N)C(=O)N(C1CC1)[C@@H]1CCNc2ccc(Cc3ccccc3)cc21` [Compound 1015], the Emax is 15.8 ± 3.75%.

Take `Cc1ccc(Cc2ccc3c(c2)[C@H](NC(=O)[C@@H](N)Cc2c(C)cc(O)cc2C)CCN3)cc1` [Compound 1007]: the Emax is 99%.

As for `Cc1cc(O)cc(C)c1C[C@H](N)C(=O)N[C@@H]1CCNc2ccc(CN3CCC[C@H]4CCCC[C@@H]43)cc21` [Compound 1051], the Emax was 36.2 ± 8.14%.

Turning to `Cc1cc(O)cc(C)c1C[C@H](N)C(=O)N[C@@H]1CCN(C)c2ccc(Cc3ccccc3)cc21` [Compound 1004], the Emax amounted to 102 ± 4.6%.

Consider `Cc1cc(O)cc(C)c1C[C@H](N)C(=O)N[C@H]1CCN(C)c2ccc(Cc3ccccc3)cc21` [Compound 1005], for which the Emax was found to be 72.2 ± 3.6%.

For the next assay, the target named is T2, rat δ (C6-DOR) opioid receptor. Description: Stimulation of [35S]GTPγS binding, DOR. The format is biochemical. Particulars: [35S]GTPγS binding, C6-DOR membranes; mean ± standard error. In outline:
as §2
`Cc1cc(O)cc(C)c1C[C@H](N)C(=O)N(C1CC1)[C@@H]1CCNc2ccc(Cc3ccccc3)cc21` [Compound 1015] came in with an EC50 of 149 ± 42 nM.

With `Cc1cc(O)cc(C)c1C[C@H](N)C(=O)N[C@@H]1CCNc2ccc(CN3CCC[C@H]4CCCC[C@@H]43)cc21` [Compound 1051], the “EC50 (nm) DOR” value was “dns”.

The compound `Cc1cc(O)cc(C)c1C[C@H](N)C(=O)N[C@@H]1CCN(C)c2ccc(Cc3ccccc3)cc21` [Compound 1004] gave an EC50 of 486 nM.

Staying with this assay, now noted: [35S]GTPγS maximal stimulation compared with 10 μM standard DPDPE.
For `Cc1cc(O)cc(C)c1C[C@H](N)C(=O)N(C1CC1)[C@@H]1CCNc2ccc(Cc3ccccc3)cc21` [Compound 1015], the Emax was found to be 19.5 ± 2.83%.

On to `Cc1ccc(Cc2ccc3c(c2)[C@H](NC(=O)[C@@H](N)Cc2c(C)cc(O)cc2C)CCN3)cc1` [Compound 1007], for which the Emax turned out to be 13%.

Turning to `Cc1cc(O)cc(C)c1C[C@H](N)C(=O)N[C@@H]1CCNc2ccc(CN3CCC[C@H]4CCCC[C@@H]43)cc21` [Compound 1051], the “% stimulation DOR” value was “dns”.

Turning to `Cc1cc(O)cc(C)c1C[C@H](N)C(=O)N[C@@H]1CCN(C)c2ccc(Cc3ccccc3)cc21` [Compound 1004], the Emax was 4.3 ± 4.3%.

For `Cc1cc(O)cc(C)c1C[C@H](N)C(=O)N[C@H]1CCN(C)c2ccc(Cc3ccccc3)cc21` [Compound 1005], the Emax was 0%.

The next assay has as its target T3, human κ (CHO-KOR) opioid receptor. Description: Stimulation of [35S]GTPγS binding, KOR. The assay is classed as biochemical. Particulars: [35S]GTPγS binding, CHO-KOR membranes; mean ± standard error. The essentials:
as §2
Consider `Cc1cc(O)cc(C)c1C[C@H](N)C(=O)N[C@@H]1CCNc2ccc(CN3CCC[C@H]4CCCC[C@@H]43)cc21` [Compound 1051], for which the “EC50 (nm) KOR” value was “dns”.

`Cc1cc(O)cc(C)c1C[C@H](N)C(=O)N[C@@H]1CCN(C)c2ccc(Cc3ccccc3)cc21` [Compound 1004] had an EC50 of 2220 ± 1020 nM.

Staying with this assay, now noted: [35S]GTPγS maximal stimulation compared with 10 μM standard U-69,593.
On to `Cc1cc(O)cc(C)c1C[C@H](N)C(=O)N(C1CC1)[C@@H]1CCNc2ccc(Cc3ccccc3)cc21` [Compound 1015], for which the Emax is -1.84 ± 1.83%.

For `Cc1ccc(Cc2ccc3c(c2)[C@H](NC(=O)[C@@H](N)Cc2c(C)cc(O)cc2C)CCN3)cc1` [Compound 1007], the Emax amounted to 14%.

Take `Cc1cc(O)cc(C)c1C[C@H](N)C(=O)N[C@@H]1CCNc2ccc(CN3CCC[C@H]4CCCC[C@@H]43)cc21` [Compound 1051]: the “% stimulation KOR” value was “dns”.

In the case of `Cc1cc(O)cc(C)c1C[C@H](N)C(=O)N[C@@H]1CCN(C)c2ccc(Cc3ccccc3)cc21` [Compound 1004], the Emax was 44 ± 8.2%.

For `Cc1cc(O)cc(C)c1C[C@H](N)C(=O)N[C@H]1CCN(C)c2ccc(Cc3ccccc3)cc21` [Compound 1005], the Emax was found to be 1.6 ± 1.4%.
